Results: EP0188169A1, “Bis-2-(4-hydroxy-2-isopropyl-5-methyl-phenoxy)-ethyl amines, process for their synthesis and pharmaceutical preparations containing them” (CORTIAL S.A., priority 1984, dated 1986)
Where two headings read alike, the source gives them in different places.

Assays:
[1] = system: anaphylaxie passive cutanée; experiment: Antiallergic activity: passive cutaneous anaphylaxis test; assay type: in vivo; details: rat, oral
Procedure: Activité antiallergigue : dans le test de l'anaphylaxie passive cutanée, le COR28 35 administré à 5 mg/kg par voie orale chez le rat entraine 60% d'activité. La prométhazine, administrée dans les mêmes conditions, entraine 53% d'activité à la dose de 10 mg/kg.

[2] = system: effet hypertenseur induit par 4.10-' mg/kg de phényléphrine; experiment: Alpha-blocking activity in conscious normal rats: antagonism of the phenylephrine pressor effect (oral); assay type: in vivo, rat Sprague-Dawley normal vigile
Text: L'activité alphabloquante des produits selon la présente invention à également été déterminée chez le rat Sprague-Dawley normal vigile. Les veines jugulaires et les artères carotides des animaux sont cathétérisées sous anesthésie à l'éther. Après récupération d'une heure, la pression artérielle et la fréquence cardiaque sont enregistrées de façon continue. L'activité des produits à tester, administrés par voie oral, vis à vis de l'effet hypertenseur induit par 4.10-' mg/kg de phényléphrine est déterminée. On indique ci-après pour le COR28 35, en fonction de la dose administrée, l'activité maximale et le temps au bout duquel l'activité résiduelle est égale à 50% de l'activité maximale : 5 mg/kg, -38,75%, 66 mm; 10 mg/kg, --37.18%. 65 mn; 20 mg/kg, -66,37%, 66 mn.

[3] = system: hypertension induite par la phényléphrine; experiment: Alpha-blocking activity in vivo: antagonism of phenylephrine-induced hypertension in pithed, bivagotomised rats (i.v.); set-up: species or system rats amyélés et bivagotomisés; details: for ED50: Rattus norvegicus, iv, read-out: DE50 (the source's name)
Text: ln vivo l'activité alpha bloquante est appréciée par la détermination de l'antagonisme de l'hypertension induite par la phényléphrine. Le produit à tester est administré par voie intraveineuse à des rats amyélés et bivagotomisés selon la technique de J.S.Gillespie et T.S. Muir (Br.J. Pharmac. Chemother., 1967, 30, 78-87). On indique ci-après pour le COR28 35, en fonction de la dose administrée, l'activité maximale et le temps au bout duquel l'activité résiduelle est égale à 50% de l'activité maximale : 4,42.10^-7 M/kg, --77,8%. 30 mn; 10^-6 M/kg, -94,5%, 55 mn; 3,53.10^-6 M/kg, -97,1%, 90 mn. La DE50 déterminée dans ces conditions pour le COR28 35 est de 1,48.10^-8 mole/kg au bout de 2 mn, 6,77.10^-7 mole/kg au bout de 30 mn et 1,87.10^-6 mole/kg au bout de 60 mn.

[4] = system: tremblements musculaires produits chez la souris par l'administration de 0,5 mg/kg d'oxotrémorine; experiment: Anticholinergic activity: oxotremorine-induced muscle tremors in mice; assay type: in vivo; details: mouse, intraperitoneal, assessed one hour after administration, oxotremorine 0,5 mg/kg s.c.
Procedure: Activité anticholineraiaue : l'activité inhibitrice des produits de la présente invention vis à vis des tremblements musculaires produits chez la souris par l'administration de 0,5 mg/kg d'oxotrémorine par voie sous cutanée est déterminée. L'eftet est apprécié une heure après l'administration par voie intrapéritonéale des produits à tester; dans ces conditions, le COR28 35 est actif à la dose de 5mg/kg.

[5] = system: souris rendue hy- percholestérotémique; experiment: Hypolipidaemic activity in mice made hypercholesterolaemic by diet; assay type: in vivo; details: mouse, oral, 200 mg/kg on days 6 and 7 of the diet
Procedure: Activité hvoolioidémiante : chez la souris rendue hy- percholestérotémique par un régime riche en cholestérol et acide cholique pendant 7 jours, l'administration de 200 mg/kg de COR28 35 par voie orale, le 6° et le 7° jour, entraine une diminution du cholestérol sérique de 17% et une diminution des HP-bétalipoprotéines de 27% accompagnées d'une diminution du rapport VLDL + LDL/cholestérol.

[6] = system: contraction induite par 5.10^-7g/ml de sérotonine sur iléon isolé de cobaye; experiment: Antiserotoninergic activity: serotonin-induced contraction of isolated guinea-pig ileum; assay type: cell-based; details: serotonin 5.10^-7g/ml; compound in contact 15 mn before the agonist; limits in brackets; read-out: CI50 (ou concentration inhibant 50% des contractions)
Text: Activité antisérotoninergigue : le COR28 35 inhibe in vitro la contraction induite par 5.10^-7g/ml de sérotonine sur iléon isolé de cobaye. L'effet maximum est obtenu quand le COR28 35 est mis au contact de l'organe isolé 15 mn avant d'introduire l'agoniste. La CI50 (ou concentration inhibant 50% des contractions) est dans ces conditions de 1,58.10^-7(1,00.10^-7-2,51.10^-7) mole/l.

[7] = system: rats spontanément hypertendus; experiment: Antihypertensive activity in spontaneously hypertensive rats (oral); assay type: in vivo
Procedure: Activité antihvoertensive : le produit à tester est administré par voie orale à des rats spontanément hypertendus. La pression artérielle est mesurée de façon indirecte en utilisant un sphygmomanomètre. Pour le COR28 35 administré à la dose de 100 mg/kg/j pendant 2 jours, la chute de pression maximale observée est de 14% le premier jour de traitement, 1 heure après le gavage. […] Administré dans les mêmes conditions à la dose de 50 mg/kg/j, la chute de pression artérielle maximale est de 15% 1 heure après gavage.

souris = experiment: Acute toxicity (mortality, LD50) in mice; assay type: in vivo; details: mouse
[8] = Acute toxicity (mortality, LD50) in mice; assay type: in vivo; details: in vivo, mouse
[9] = system: contractions induites par 2,5.10^-8 g/ml d'angiotensine I sur des préparations de segments d'iléon de cobaye; experiment: Inhibition of angiotensin I-induced contractions of guinea-pig ileum segments; assay type: cell-based; details: concentration 10-' g/ml; angiotensin I 2,5.10^-8 g/ml added 2 mn after the compound
Text: L'activité inhibitrice des produits de la présente invention vis à vis des contractions induites par 2,5.10^-8 g/ml d'angiotensine I sur des préparations de segments d'iléon de cobaye a été déterminée. L'angiotensine 1 est introduite dans le bain 2 mn après le produit à tester. Dans ces conditions, le COR28 35 entraine 51% d'inhibition des contractions à la concentration de 10-' g/ml.

[10] = system: contractions de strips aortiques isolés de lapin induites par la noradrénaline; experiment: Alpha-blocking activity in vitro: antagonism of noradrenaline-induced contractions of isolated rabbit aortic strips; assay type: cell-based; details: Oryctolagus cuniculus, 1 h; noradrenaline 2.10^-6 mole/l; compound added 60 mn before the agonist; limits in brackets; read-out: CI50 (concentration inhibant 50% des contractions)
Text: Activité alohabloauante : In vitro l'activité alphabloquante est appréciée par la détermination de l'antagonisme des contractions de strips aortiques isolés de lapin induites par la noradrénaline employée à la concentration de 2.10^-6 mole/l selon une technique dérivée de celle de Furchgott et Bhadrakom (J. Pharmacol., 1953, 108, 129-43). L'activité maximale est obtenue quand le COR28 35 est introduit dans le bain 60 mn avant l'agoniste. La CI50 (concentration inhibant 50% des contractions) est égale dans ces conditions à 1,52.10-' (1,12.10^-7 -2,07.10-') mole/l.

Cc1cc(OCCN(C)CCOc2cc(C)c(O)cc2C(C)C)c(C(C)C)cc1O [COR28 35]
activité ([1]; 5 mg/kg): 60% | activité maximale ([2]; 5 mg/kg): -38,75% | temps au bout duquel l'activité résiduelle est égale à 50% de l'activité maximale ([2]; 5 mg/kg): 66 min | temps au bout duquel l'activité résiduelle est égale à 50% de l'activité maximale ([2]; 10 mg/kg): 65 mn | activité maximale ([2]; 20 mg/kg): -66,37% | temps au bout duquel l'activité résiduelle est égale à 50% de l'activité maximale ([2]; 20 mg/kg): 66 mn | ED50 ([3]; 2 min, i.v., after 2 mn): 0.0148 µmol/kg | ED50 ([3]; 0.5 h, i.v., after 30 mn): 0.677 µmol/kg | ED50 ([3]; 1 h, i.v., after 60 mn): 1.87 µmol/kg | activité maximale ([3]; i.v., 3,53.10^-6 M/kg): -97,1% | temps au bout duquel l'activité résiduelle est égale à 50% de l'activité maximale ([3]; i.v., 3,53.10^-6 M/kg): 90 mn | temps au bout duquel l'activité résiduelle est égale à 50% de l'activité maximale ([3]; i.v., 4,42.10^-7 M/kg): 30 mn | activité maximale ([3]; i.v., 10^-6 M/kg): -94,5% | temps au bout duquel l'activité résiduelle est égale à 50% de l'activité maximale ([3]; i.v., 10^-6 M/kg): 55 mn | activité inhibitrice vis à vis des tremblements musculaires [4]: actif | diminution des HP-bétalipoprotéines [5]: 27% | diminution du cholestérol sérique [5]: 17% | rapport VLDL + LDL/cholestérol [5]: diminution | IC50 [6]: 158 nM | chute de pression artérielle maximale ([7]; 50 mg/kg/j, 1 hour after gavage): 15% | pression par rapport au lot témoin ([7]; 100 mg/kg/j for 2 days, 6 hours after gavage on the second day): significativement abaissée | chute de pression maximale observée ([7]; 100 mg/kg/j for 2 days, first day of treatment, 1 hour after gavage): 14% | mortalité (souris; intraperitoneal, 500 mg/kg): aucune mortalité | mortalité (souris; oral, 300 mg/kg): aucune mortalité | mortality ([8]; ip, intraperitoneal, 1000 mg/kg, read-out: mortalité): 40% | LD50 ([8]; intravenous, limits in brackets, read-out: DL50 (the source's name)): 53.5 mg/kg | inhibition des contractions [9]: 51% | IC50 [10]: 152 nM

CC(CN1c2ccccc2Sc2ccccc21)N(C)C (centres unmarked) [prométhazine, reference compound]
activité ([1]; 10 mg/kg): 53%
